Assay results taken from patent US7560466B2, “Methods of treating or preventing autoimmune diseases with 2,4-pyrimidinediamine compounds” (Rigel Pharmaceuticals, Inc., priority 2003, dated 2009).
Where two headings read alike, the source gives them in different places.

Biological target: T1, Syk kinase (Homo sapiens, UniProt P43405)
T1 construct: purchased Upstate, Lake Placid N.Y
Experiment: Syk kinase biochemical fluorescence polarization assay
Details: isolated Syk kinase, read-out: fp_syk, 11pt
Protocol: Many of the 2,4-pyrimidinediamine compounds were tested for the ability to inhibit Syk kinase catalyzed phosphorylation of a peptide substrate in a biochemical fluorescenced polarization assay with isolated Syk kinase. In this experiment, Compounds were diluted to 1% DMSO in kinase buffer (20 mM HEPES, pH 7.4, 5 mM MgCl2, 2 mM MnCl2, 1 mM DTT, 0.1 mg/mL acetylated Bovine Gamma Globulin). Compound in 1% DMSO (0.2% DMSO final) was mixed with ATP/substrate solution at room temperature. Syk kinase (Upstate, Lake Placid N.Y.) was added to a final reaction volume of 20 uL, and the reaction was incubated for 30 minutes at room temperature. […] EDTA (10 mM final)/anti-phosphotyrosine antibody (1× final)/fluorescent phosphopeptide tracer (0.5× final) was added in FP Dilution Buffer to stop the reaction for a total volume of 40 uL according to manufacturer's instructions (PanVera Corporation) The plate was incubated for 30 minutes in the dark at room temperature. Plates were read on a Polarion fluorescence polarization plate reader (Tecan). Data were converted to amount of phosphopeptide present using a calibration curve generated by competition with the phosphopeptide competitor provided in the Tyrosine Kinase Assay Kit, Green (PanVera Corporation).
In Tabe 1, all reported values are IC50s (in μM).

SMILES	IC50 (11pt) [µM]	IC50 (11-point) [µM]
O=C1Nc2cc(Nc3nc(Nc4ccc(-c5cnco5)cc4)ncc3F)ccc2OC1CCO (centres unmarked) [Compound 227]	< 10	
COc1cc(Nc2ncc(F)c(Nc3ccc4c(c3)NC(=O)C(C)S4(=O)=O)n2)cc(OC)c1 (centres unmarked) [Compound 263, N2-(3,5-Dimethoxyphenyl)-N4-(dioxide-2-methyl-1,1,3-trioxo-4H-benzo[1,4]thiazin-6-yl)-5-fluoro-2,4-pyrimidinediamine]	< 10	
Cc1cc(C)cc(Nc2ncc(F)c(Nc3ccc4c(c3)NC(=O)C(C)S4(=O)=O)n2)c1 (centres unmarked) [Compound 264]	< 10	
CC1C(=O)Nc2cc(Nc3nc(Nc4ccc5cn[nH]c5c4)ncc3F)ccc2S1(=O)=O (centres unmarked) [Compound 265]	< 10	
COc1cc(Nc2ncc(F)c(Nc3ccc4c(c3)NC(=O)C(C)S4(=O)=O)n2)cc(OC)c1OC (centres unmarked) [Compound 266]	< 10	
COc1cc(Nc2ncc(F)c(Nc3ccc4c(c3)NC(=O)C(C)(C)S4(=O)=O)n2)cc(OC)c1 [Compound 267]	< 10	
Cc1cc(C)cc(Nc2ncc(F)c(Nc3ccc4c(c3)NC(=O)C(C)(C)S4(=O)=O)n2)c1 [Compound 268]	< 10	
COc1cc(Nc2ncc(F)c(Nc3ccc4c(c3)NC(=O)C(C)(C)S4(=O)=O)n2)cc(OC)c1OC [Compound 269]	< 10	
CC1(C)Sc2ccc(Nc3nc(Nc4ccc5cn[nH]c5c4)ncc3F)cc2NC1=O [Compound 295]	< 10	
CC1(C)Oc2ccc(Nc3nc(Nc4cc(CO)cc(CO)c4)ncc3F)cc2NC1=O [Compound 344, N2-[3,5-Bis(hydoxymethylene)phenyl]-N4-(2,2-dimethyl-3-oxo-4H-benz[1,4]oxazin-6-yl)-5-fluoro-2,4-pyrimidinediamine]	< 10	
CN(c1ccc2c(c1)OCCO2)c1nc(Cl)ncc1F [Compound 390]	> 10	
COc1cc(Nc2ncc(F)c(Nc3ccc4c(c3)NC(=O)C(C)(C)O4)n2)cc(OC)c1OC [Compound 543]	< 10	
CCn1ncc2cc(Nc3ncc(F)c(Nc4ccc5c(c4)NC(=O)C(C)(C)O5)n3)ccc21 [Compound 696]	< 10	
CCCn1ncc2cc(Nc3ncc(F)c(Nc4ccc5c(c4)NC(=O)C(C)(C)O5)n3)ccc21 [Compound 704]	< 10	
CCCn1ncc2ccc(Nc3ncc(F)c(Nc4ccc5c(c4)NC(=O)C(C)(C)O5)n3)cc21 [Compound 708]	< 10	
CCCCn1ncc2cc(Nc3ncc(F)c(Nc4ccc5c(c4)NC(=O)C(C)(C)O5)n3)ccc21 [Compound 712]	< 10	
CCCCn1ncc2ccc(Nc3ncc(F)c(Nc4ccc5c(c4)NC(=O)C(C)(C)O5)n3)cc21 [Compound 716]	< 10	
CC1(C)Oc2ccc(Nc3nc(Nc4ccc5c(cnn5CC5CC5)c4)ncc3F)cc2NC1=O [Compound 736]	< 10	
CC1(C)Oc2ccc(Nc3nc(Nc4ccc5cnn(CC6CC6)c5c4)ncc3F)cc2NC1=O [Compound 740]	< 10	
CC1(C)Oc2ccc(Nc3nc(Nc4ccc5c(cnn5C5CCCCC5)c4)ncc3F)cc2NC1=O [Compound 744]	< 10	
Cc1nn(C)c2cc(Nc3ncc(F)c(Nc4ccc5c(c4)NC(=O)C(C)(C)O5)n3)ccc12 [Compound 754]	< 10	
CC1(C)Oc2ccc(Nc3nc(Nc4ccc5nc(C(F)(F)F)[nH]c5c4)ncc3F)cc2NC1=O [Compound 802, N4-(2,2-Dimethyl-3-oxo-4H-benz[1,4]oxazin-6-yl)-5-fluoro-N2-(2-trifluoromethyl-1H-benzimidazol-5-yl)-2,4-pyrimidinediamine]	< 10	

SMILES	IC50 (11pt) [µM]	IC50 (11-point) [µM]
Cn1nc(N)c2cc(Nc3ncc(F)c(Nc4ccc5c(c4)NC(=O)C(C)(C)O5)n3)ccc21 [Compound 806, N2-(3-A mino-1-methylindazol-5-yl)-N4-(2,2-dimethyl-3-oxo-4H-benz[1,4]oxazin-6-yl)-5-fluoro-2,4-pyrimidinediamine]	< 10	
Cc1nc2ccc(Nc3ncc(F)c(Nc4ccc5c(c4)NC(=O)C(C)(C)O5)n3)cc2[nH]1 [Compound 810, N4-(2,2-Dimethyl-3-oxo-4H-benz[1,4]oxazin-6-yl)-5-fluoro-N2-(2-methyl-3H-benzimidazol-5-yl)-2,4-pyrimidinediamine]	< 10	
Cc1nc2ccc(Nc3ncc(F)c(Nc4ccc5c(c4)NC(=O)[C@H](C)O5)n3)cc2[nH]1 [Compound 811, (S)-5-Fluoro-N2-(2-methyl-3H-benzimidazol-5-yl)-N4-(2-methyl-3-oxo-2H,4H-benz[1,4]oxazin-6-yl)-2,4-pyrimidinediamine]	< 10	
CC(=O)NCCCn1ncc2cc(Nc3ncc(F)c(Nc4ccc5c(n4)NC(=O)C(C)(C)O5)n3)ccc21 [Compound 822, N2-[1-[3-(N-Acetylamino)propyl]indazol-5-yl]-N4-(2,2-dimethyl-3-oxo-4H-5-pyrid[1,4]oxazin-6-yl)-5-fluoro-2,4-pyrimidinediamine]	< 10	
Cc1nc2ccc(Nc3ncc(F)c(Nc4ccc5c(n4)NC(=O)C(C)(C)O5)n3)cc2[nH]1 [Compound 845, N4-(2,2-Dimethyl-3-oxo-4H-5-pyrid[1,4]oxazin-6-yl)-5-fluoro-N2-(2-methyl-3H-benzimidazol-5-yl)-2,4-pyrimidinediamine]	< 10	
CC1(C)Oc2ccc(Nc3nc(Nc4ccc5[nH]c(C(F)(F)F)nc5c4)ncc3F)nc2NC1=O [Compound 846, N4-(2,2-Dimethyl-3-oxo-4H-5-pyrid[1,4]oxazin-6-yl)-5-fluoro-N2-(2-trifluoromethyl-1H-benzimidazol-5-yl)-2,4-pyrimidinediamine]	< 10	
Cc1nc2cc(Nc3ncc(F)c(Nc4ccc5c(c4)NC(=O)[C@H](C)O5)n3)ccc2n1C [Compound 897]	< 10	
Cc1nc2cc(Nc3ncc(F)c(Nc4ccc5c(n4)NC(=O)C(C)(C)O5)n3)ccc2n1C [Compound 898, N2-(1,2-Dimethylbenzimidazol-5-yl)-N4-(2,2-dimethyl-3-oxo-4H-5-pyrid[1,4]oxazin-6-yl)-5-Fluoro-2,4-pyrimidinediamine]	< 10	
Cc1nc2cc(Nc3ncc(F)c(Nc4ccc5c(c4)NC(=O)C(C)(C)O5)n3)ccc2n1CCO [Compound 901]	< 10	
Cc1nc2cc(Nc3ncc(F)c(Nc4ccc5c(c4)NC(=O)[C@H](C)O5)n3)ccc2n1CCO [Compound 902]	< 10	
Cc1nc2cc(Nc3ncc(F)c(Nc4ccc5c(n4)NC(=O)C(C)(C)O5)n3)ccc2n1CCO [Compound 903, N4-(2,2-Dimethyl-3-oxo-4H-5-pyrid[1,4]oxazin-6-yl)-5-fluoro-N2-[1-(2-hydroxyethyl)-2-methylbenzimidazol-5-yl)-2,4-pyrimidinediamine]	< 10	
Cc1nc2ccc(Nc3ncc(F)c(Nc4ccc5c(c4)NC(=O)C(C)S5(=O)=O)n3)cc2[nH]1 (centres unmarked) [Compound 909]	< 10	
CC1C(=O)Nc2cc(Nc3nc(Nc4ccc5[nH]c(C(F)(F)F)nc5c4)ncc3F)ccc2S1(=O)=O (centres unmarked) [Compound 910, 5-Fluoro-N4-(2-methyl-1,1,3-trioxo-2H,4H-benzo[1,4]thiazin-6-yl)-N2-(2-trifluoromethyl-1H-benzimidazol-5-yl)-2,4-pyrimidinediamine]	< 10	
CC1(C)Oc2ccc(Nc3nc(Nc4ccc5[nH]c(CN6CCOCC6)nc5c4)ncc3F)cc2NC1=O [Compound 961, N4-(2,2-Dimethyl-3-oxo-4H-benz[1,4]oxazin-6-yl)-5-fluoro-N2-[2-(4-morpholinomethyl)-1H-benzimidazol-5-yl]-2,4-pyrimidinediamine]	< 10	
CC1(C)Oc2ccc(Nc3nc(Nc4ccc5[nH]c(CN6CCOCC6)nc5c4)ncc3F)nc2NC1=O [Compound 962, N4-(2,2-Dimethyl-3-oxo-4H-5-pyrido[1,4]oxazin-6-yl)-5-fluoro-N2-[2-(4-morpholinomethyl)-1H-benzimidazol-5-yl]-2,4-pyrimidinediamine]	< 10	
CC1(C)Oc2ccc(Nc3nc(Nc4ccc5[nH]c(N6CCOCC6)nc5c4)ncc3F)cc2NC1=O [Compound 976, N4-(2,2-Dimethyl-3-oxo-4H-benz[1,4]oxazin-6-yl)-5-fluoro-N2-[2-(4-morpholino)-1H-benzimidazol-5-yl]-2,4-pyrimidinediamine]	< 10	
CC1(C)Oc2ccc(Nc3nc(Nc4ccc5[nH]c(N6CCOCC6)nc5c4)ncc3F)nc2NC1=O [Compound 977, N4-(2,2-Dimethyl-3-oxo-4H-5-pyrido[1,4]oxazin-6-yl)-5-fluoro-N2-[2-(4-morpholino)-1H-benzimidazol-5-yl]-2,4-pyrimidinediamine]	< 10	
COc1c(C)cc(Nc2ncc(F)c(Nc3ccc4c(n3)NC(=O)C(C)(C)O4)n2)cc1C [Compound 997, N2-(3,5-Dimethyl-4-methoxyphenyl)-N4-(2,2-dimethyl-3-oxo-4H-5-pyrid[1,4]oxazin-6-yl)-5-fluoro-2,4-pyrimidinediamine]	< 10	
CCOc1c(C)cc(Nc2ncc(F)c(Nc3ccc4c(c3)NC(=O)C(C)(C)O4)n2)cc1Cl [Compound 1008]	< 10	
CC1(C)Oc2ccc(Nc3nc(Nc4ccc(-c5ncco5)cc4)ncc3F)cc2NC1=O [Compound 1011]	< 10	
CC1(C)Oc2ccc(Nc3nc(Nc4cccc(-c5cnco5)c4)ncc3F)cc2NC1=O [Compound 1016]		< 10
O=C1COc2ccc(Nc3ncc(F)c(Nc4ccc5c(c4)NC(=O)CO5)n3)cc2N1 [Compound 1083]		< 10
